Results reported in PMC10599993, “The PTPN2/PTPN1 inhibitor ABBV-CLS-484 unleashes potent anti-tumour immunity” (Nature, 2023).

Key:
Assay in all cases: biochemical
Abl = target: T1, Abl (Homo sapiens, UniProt P00519); set-up: Kinase selectivity panel, IC50 of AC484 (Supplementary Table 1)
T1 construct: gene ABL1
Experimental: (§1) Wide-range phosphatase, kinase and preclinical safety pharmacology off-target activity screens were conducted at Eurofins (Extended Data Table 5 and Supplementary Tables 1 and 2). A small phosphatase panel was developed at AbbVie to assess IC50 values on select phosphatases. The following enzymes used in the phosphatase selectivity panel were purchased from Eurofins: PTPN1 (PTP1B; 14–621), PTPN2 (TC-PTP; 14–646), PTPN9 (14–592), SHP1 (14–591) and SHP2 (14–622). The catalytic activity of the phosphatase was monitored using the small-molecule substrate DiFMUP (ThermoFisher) in a fluorescence assay format. In brief, the phosphatase reactions were performed at room temperature in the following assay buffer: 50 mM HEPES, pH 7.2, 100 mM NaCl, 1 mM EDTA, 0.005% Tween-20 and 5 mM TCEP. Each phosphatase was incubated with increasing concentrations of AC484 for 5 min, after which the substrate DiFMUP was added and incubated at 25 °C for 30 min. The final concentration of the enzyme and substrate was maintained at 0.5 nM and 5 μM, respectively, in all the assays. The reaction was then quenched by the addition of a 100 μM solution of bpV(Phen) (Enzo Life Sciences). The fluorescence signal was monitored using an Envision microplate reader (Perkin-Elmer) using excitation and emission wavelengths of 340 nm and 450 nm, respectively. The dose–response curves for the inhibitors were analysed using normalized IC50 regression curve fitting with control-based normalization. Supplementary file 41586_2023_6575_MOESM3_ESM.xlsx: Supplementary Table 1 AC484 kinase selectivity screen.

BTK = BTK (Homo sapiens, UniProt Q06187); set-up: Kinase selectivity panel, IC50 of AC484 (Supplementary Table 1)
Experimental: as §1

PKCdelta = target: T2, PKCdelta (Homo sapiens, UniProt Q05655); set-up: Kinase selectivity panel, IC50 of AC484 (Supplementary Table 1)
T2 construct: gene PRKCD
Experimental: as §1

SIK1 = SIK1 (Homo sapiens, UniProt P57059); set-up: Kinase selectivity panel, IC50 of AC484 (Supplementary Table 1)
Experimental: as §1

STK33 = STK33 (Homo sapiens, UniProt Q9BYT3); set-up: Kinase selectivity panel, IC50 of AC484 (Supplementary Table 1)
Experimental: as §1

Wee1 = Wee1 (Homo sapiens, UniProt P30291); set-up: Kinase selectivity panel, IC50 of AC484 (Supplementary Table 1)
Experimental: as §1

A2B (h) = target: T3, A2B (h) (Homo sapiens, UniProt P29275); set-up: Safety pharmacology off-target panel at Eurofins, radioligand binding with agonist or antagonist radioligand (Supplementary Table 2); settings: antagonist radioligand
T3 construct: gene ADORA2B

AT1 (h) = target: T4, AT1 (h) (Homo sapiens, UniProt P30556); set-up: Safety pharmacology off-target panel at Eurofins, radioligand binding with agonist or antagonist radioligand (Supplementary Table 2); settings: antagonist radioligand
T4 construct: gene AGTR1

AT2 (h) = target: T5, AT2 (h) (Homo sapiens, UniProt P50052); set-up: Safety pharmacology off-target panel at Eurofins, radioligand binding with agonist or antagonist radioligand (Supplementary Table 2); settings: agonist radioligand
T5 construct: gene AGTR2

CB2 = target: T6, CB2 (Homo sapiens, UniProt P34972); set-up: Safety pharmacology off-target panel at Eurofins, radioligand binding with agonist or antagonist radioligand (Supplementary Table 2); settings: agonist radioligand
T6 construct: gene CNR2

GR = target: T7, GR (Homo sapiens, UniProt P04150); set-up: Safety pharmacology off-target panel at Eurofins, radioligand binding with agonist or antagonist radioligand (Supplementary Table 2); settings: agonist radioligand
T7 construct: gene NR3C1

M3 = target: T8, M3 (Homo sapiens, UniProt P20309); set-up: Safety pharmacology off-target panel at Eurofins, radioligand binding with agonist or antagonist radioligand (Supplementary Table 2); settings: antagonist radioligand
T8 construct: gene CHRM3

MT2 (ML1B) = target: T9, MT2 (ML1B) (Homo sapiens, UniProt P49286); set-up: Safety pharmacology off-target panel at Eurofins, radioligand binding with agonist or antagonist radioligand (Supplementary Table 2); settings: agonist radioligand
T9 construct: gene MTNR1B; ML1B

VPAC1 (VIP1) = target: T10, VPAC1 (VIP1) (Homo sapiens, UniProt P32241); set-up: Safety pharmacology off-target panel at Eurofins, radioligand binding with agonist or antagonist radioligand (Supplementary Table 2); settings: agonist radioligand
T10 construct: gene VIPR1

a2A (h) = target: T11, a2A (h) (Homo sapiens, UniProt P08913); set-up: Safety pharmacology off-target panel at Eurofins, radioligand binding with agonist or antagonist radioligand (Supplementary Table 2); settings: antagonist radioligand
T11 construct: gene ADRA2A

Sequence of STK33 (Q9BYT3 whole entry): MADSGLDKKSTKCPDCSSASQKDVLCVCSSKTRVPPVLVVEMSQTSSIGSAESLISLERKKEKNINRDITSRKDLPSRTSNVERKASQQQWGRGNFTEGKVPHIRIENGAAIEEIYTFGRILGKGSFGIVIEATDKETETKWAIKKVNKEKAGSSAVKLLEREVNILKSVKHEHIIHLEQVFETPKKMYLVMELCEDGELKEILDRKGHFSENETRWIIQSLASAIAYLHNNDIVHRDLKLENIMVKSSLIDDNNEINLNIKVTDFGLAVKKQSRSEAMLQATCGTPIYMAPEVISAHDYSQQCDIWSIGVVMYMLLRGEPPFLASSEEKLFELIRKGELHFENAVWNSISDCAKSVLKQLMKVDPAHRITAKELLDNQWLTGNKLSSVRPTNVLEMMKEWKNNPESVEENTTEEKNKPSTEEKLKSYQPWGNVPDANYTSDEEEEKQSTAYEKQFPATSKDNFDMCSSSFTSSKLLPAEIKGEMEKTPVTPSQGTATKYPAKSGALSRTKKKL
T3 sequence (P29275 whole entry): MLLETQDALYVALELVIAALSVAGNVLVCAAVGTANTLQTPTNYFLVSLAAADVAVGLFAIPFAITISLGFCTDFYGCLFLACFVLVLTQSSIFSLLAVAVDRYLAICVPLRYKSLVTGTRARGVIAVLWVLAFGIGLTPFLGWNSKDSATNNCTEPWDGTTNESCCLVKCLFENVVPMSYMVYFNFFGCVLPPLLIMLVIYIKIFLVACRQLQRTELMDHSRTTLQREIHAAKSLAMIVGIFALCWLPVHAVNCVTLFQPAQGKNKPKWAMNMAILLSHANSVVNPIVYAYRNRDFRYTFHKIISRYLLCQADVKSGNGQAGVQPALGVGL
Sequence of BTK (Q06187 whole entry): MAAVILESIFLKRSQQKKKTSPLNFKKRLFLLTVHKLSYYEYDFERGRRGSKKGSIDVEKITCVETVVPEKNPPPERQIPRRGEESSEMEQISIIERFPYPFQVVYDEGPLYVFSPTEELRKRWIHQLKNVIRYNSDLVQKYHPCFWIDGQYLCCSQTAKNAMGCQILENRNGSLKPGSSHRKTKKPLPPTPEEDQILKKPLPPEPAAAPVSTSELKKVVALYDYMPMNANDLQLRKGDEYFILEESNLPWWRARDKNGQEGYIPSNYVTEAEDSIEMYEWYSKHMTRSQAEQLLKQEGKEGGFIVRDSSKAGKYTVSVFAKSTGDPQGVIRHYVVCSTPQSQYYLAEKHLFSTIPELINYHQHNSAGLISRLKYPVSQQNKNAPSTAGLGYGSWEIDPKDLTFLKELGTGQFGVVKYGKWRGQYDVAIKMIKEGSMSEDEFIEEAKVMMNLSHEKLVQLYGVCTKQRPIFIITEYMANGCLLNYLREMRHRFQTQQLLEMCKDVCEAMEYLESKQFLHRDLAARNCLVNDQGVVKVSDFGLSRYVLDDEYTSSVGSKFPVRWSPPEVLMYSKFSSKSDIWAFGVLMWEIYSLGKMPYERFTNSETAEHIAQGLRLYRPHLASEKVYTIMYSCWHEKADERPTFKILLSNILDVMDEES
T6 sequence (P34972 whole entry): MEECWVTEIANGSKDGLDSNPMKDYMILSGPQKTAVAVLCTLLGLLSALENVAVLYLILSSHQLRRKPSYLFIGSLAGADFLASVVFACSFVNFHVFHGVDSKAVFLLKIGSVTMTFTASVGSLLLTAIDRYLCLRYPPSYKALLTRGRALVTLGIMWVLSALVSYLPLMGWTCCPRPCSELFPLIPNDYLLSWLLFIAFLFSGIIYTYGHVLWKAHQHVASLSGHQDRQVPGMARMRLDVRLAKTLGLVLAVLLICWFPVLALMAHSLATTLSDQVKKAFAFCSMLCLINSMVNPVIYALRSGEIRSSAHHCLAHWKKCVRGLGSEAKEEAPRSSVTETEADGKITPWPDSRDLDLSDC
T9 sequence (P49286 whole entry): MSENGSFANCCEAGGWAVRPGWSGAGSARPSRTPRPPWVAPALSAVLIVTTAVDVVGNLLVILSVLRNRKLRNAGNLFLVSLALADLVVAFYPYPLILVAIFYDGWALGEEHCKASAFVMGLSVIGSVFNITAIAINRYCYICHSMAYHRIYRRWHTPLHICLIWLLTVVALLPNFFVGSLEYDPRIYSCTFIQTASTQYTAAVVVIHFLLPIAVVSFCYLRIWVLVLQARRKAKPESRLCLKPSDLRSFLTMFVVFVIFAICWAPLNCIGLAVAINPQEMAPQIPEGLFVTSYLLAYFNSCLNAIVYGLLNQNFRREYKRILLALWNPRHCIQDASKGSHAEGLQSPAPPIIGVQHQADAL
Sequence of SIK1 (P57059 whole entry): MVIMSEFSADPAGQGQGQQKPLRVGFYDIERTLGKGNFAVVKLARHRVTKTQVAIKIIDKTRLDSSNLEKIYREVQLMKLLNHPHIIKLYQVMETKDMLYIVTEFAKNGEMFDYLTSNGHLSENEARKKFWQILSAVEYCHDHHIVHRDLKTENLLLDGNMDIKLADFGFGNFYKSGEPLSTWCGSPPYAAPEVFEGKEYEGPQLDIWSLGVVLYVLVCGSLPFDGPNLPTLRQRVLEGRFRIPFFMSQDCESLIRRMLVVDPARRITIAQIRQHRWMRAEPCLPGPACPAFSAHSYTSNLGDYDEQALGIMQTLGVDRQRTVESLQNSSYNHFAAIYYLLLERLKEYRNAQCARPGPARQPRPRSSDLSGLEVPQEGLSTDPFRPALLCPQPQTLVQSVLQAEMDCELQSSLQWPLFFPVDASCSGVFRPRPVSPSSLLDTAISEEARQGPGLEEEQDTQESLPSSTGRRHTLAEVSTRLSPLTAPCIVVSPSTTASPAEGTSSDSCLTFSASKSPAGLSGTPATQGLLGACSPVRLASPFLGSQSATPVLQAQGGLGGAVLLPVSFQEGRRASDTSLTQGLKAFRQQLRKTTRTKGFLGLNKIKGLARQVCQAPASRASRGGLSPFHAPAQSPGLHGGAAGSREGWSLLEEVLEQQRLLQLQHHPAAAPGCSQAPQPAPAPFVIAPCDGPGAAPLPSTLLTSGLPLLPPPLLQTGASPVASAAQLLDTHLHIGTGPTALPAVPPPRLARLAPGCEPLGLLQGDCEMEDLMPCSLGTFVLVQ
T10 sequence (P32241 whole entry): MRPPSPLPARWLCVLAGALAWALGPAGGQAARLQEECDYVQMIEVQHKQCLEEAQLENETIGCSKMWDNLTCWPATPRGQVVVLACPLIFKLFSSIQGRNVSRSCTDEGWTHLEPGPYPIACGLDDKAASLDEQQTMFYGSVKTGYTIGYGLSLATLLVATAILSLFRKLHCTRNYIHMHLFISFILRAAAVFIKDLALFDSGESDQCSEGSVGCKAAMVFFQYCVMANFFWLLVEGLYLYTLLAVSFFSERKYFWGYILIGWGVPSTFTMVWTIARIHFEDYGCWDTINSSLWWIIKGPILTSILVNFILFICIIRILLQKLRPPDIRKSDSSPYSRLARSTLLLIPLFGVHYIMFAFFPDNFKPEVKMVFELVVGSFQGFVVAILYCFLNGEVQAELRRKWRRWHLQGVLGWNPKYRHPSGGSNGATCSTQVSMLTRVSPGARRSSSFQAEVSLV
T1 sequence (P00519 whole entry): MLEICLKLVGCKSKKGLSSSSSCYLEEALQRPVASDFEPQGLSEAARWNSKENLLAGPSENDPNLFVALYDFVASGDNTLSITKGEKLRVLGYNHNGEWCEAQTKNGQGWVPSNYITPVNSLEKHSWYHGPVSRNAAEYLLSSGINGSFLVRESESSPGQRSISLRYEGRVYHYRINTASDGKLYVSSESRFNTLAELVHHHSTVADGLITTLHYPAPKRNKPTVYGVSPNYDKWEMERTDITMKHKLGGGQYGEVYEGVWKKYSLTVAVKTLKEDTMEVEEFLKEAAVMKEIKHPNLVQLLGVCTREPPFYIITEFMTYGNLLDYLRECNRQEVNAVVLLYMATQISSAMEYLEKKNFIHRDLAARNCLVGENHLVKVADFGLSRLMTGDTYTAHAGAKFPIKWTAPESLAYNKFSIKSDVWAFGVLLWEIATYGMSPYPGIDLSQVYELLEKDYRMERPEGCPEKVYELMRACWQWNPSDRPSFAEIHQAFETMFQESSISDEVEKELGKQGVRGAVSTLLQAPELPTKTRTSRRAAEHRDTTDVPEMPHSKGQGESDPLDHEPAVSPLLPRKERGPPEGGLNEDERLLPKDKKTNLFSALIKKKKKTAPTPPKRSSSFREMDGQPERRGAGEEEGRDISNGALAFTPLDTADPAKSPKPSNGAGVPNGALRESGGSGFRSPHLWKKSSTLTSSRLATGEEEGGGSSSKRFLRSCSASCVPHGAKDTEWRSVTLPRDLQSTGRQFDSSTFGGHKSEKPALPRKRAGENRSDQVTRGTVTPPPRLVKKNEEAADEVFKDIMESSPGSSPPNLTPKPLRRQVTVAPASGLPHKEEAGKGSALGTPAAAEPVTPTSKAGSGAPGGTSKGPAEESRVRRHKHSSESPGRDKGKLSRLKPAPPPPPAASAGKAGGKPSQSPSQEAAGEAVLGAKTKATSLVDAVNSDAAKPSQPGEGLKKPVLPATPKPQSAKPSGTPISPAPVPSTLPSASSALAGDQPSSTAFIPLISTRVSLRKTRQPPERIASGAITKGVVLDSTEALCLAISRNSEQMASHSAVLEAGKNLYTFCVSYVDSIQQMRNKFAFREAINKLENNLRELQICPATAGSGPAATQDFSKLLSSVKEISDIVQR
T5 sequence (P50052 whole entry): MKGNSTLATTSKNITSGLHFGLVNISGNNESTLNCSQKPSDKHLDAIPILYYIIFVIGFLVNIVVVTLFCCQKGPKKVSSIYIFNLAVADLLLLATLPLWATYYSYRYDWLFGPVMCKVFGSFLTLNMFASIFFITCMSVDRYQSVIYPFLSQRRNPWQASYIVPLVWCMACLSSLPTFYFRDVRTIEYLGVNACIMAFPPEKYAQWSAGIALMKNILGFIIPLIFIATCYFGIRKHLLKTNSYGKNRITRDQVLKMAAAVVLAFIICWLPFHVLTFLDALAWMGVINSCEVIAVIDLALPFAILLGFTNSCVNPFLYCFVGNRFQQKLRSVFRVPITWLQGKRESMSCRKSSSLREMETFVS

Structure (SMILES): CC(C)CCN[C@@H]1CCc2cc(O)c(N3CC(=O)NS3(=O)=O)c(F)c2C1 [AC484, ABBV-CLS-484]
- IC50 (Abl): > 10 µM
- IC50 (BTK): > 10 µM
- IC50 (PKCdelta): > 10 µM
- IC50 (SIK1): > 10 µM
- IC50 (STK33): > 10 µM
- IC50 (Wee1): > 10 µM
- AC50 (A2B (h)): > 0.01 mM
- AC50 (AT1 (h)): > 0.01 mM
- AC50 (AT2 (h)): > 0.01 mM
- AC50 (CB2): > 0.01 mM
- AC50 (GR): > 0.01 mM
- AC50 (M3): > 0.01 mM
- AC50 (MT2 (ML1B)): > 0.01 mM
- AC50 (VPAC1 (VIP1)): > 0.01 mM
- AC50 (a2A (h)): > 0.01 mM
